Measurements: ChEMBL document CHEMBL1201862, “PubChem BioAssay data set” (2004)
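These data come from cells grown in 96-well plates and exposed to compound for 48 hours at five concentrations. GI50 is the concentration that inhibits growth by half.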 Active and inactive are the calls of the source. No stated cut-off is given here; in the data, active = GI50 up to about 1.1 µM and inactive = higher.

Tests used:
Experiment in all cases: NCI-60 cell line screen, 48 h
SF-295 = system: SF-295
UO-31 = system: UO-31
MDA-MB-435 = system: MDA-MB-435
SW-620 = system: SW-620
A549 = system: A549
IGROV-1 = system: IGROV-1
SK-MEL-28 = system: SK-MEL-28
M14 = system: M14
SNB-19 = system: SNB-19
SK-MEL-5 = system: SK-MEL-5
KM12 = system: KM12
Hs-578T = system: Hs-578T
UACC-257 = system: UACC-257
ACHN = system: ACHN
T47D = system: T47D
HCC 2998 = system: HCC 2998
SR = system: SR
OVCAR-4 = system: OVCAR-4
Malme-3M = system: Malme-3M
NCI-H226 = system: NCI-H226

SMILES | GI50 (SF-295) | GI50 (UO-31) | GI50 (MDA-MB-435) | GI50 (SW-620) | GI50 (A549) | GI50 (IGROV-1) | GI50 (SK-MEL-28) | GI50 (M14) | GI50 (SNB-19) | GI50 (SK-MEL-5) | GI50 (KM12) | GI50 (Hs-578T) | GI50 (UACC-257) | GI50 (ACHN) | GI50 (T47D) | GI50 (HCC 2998) | GI50 (SR) | GI50 (OVCAR-4) | GI50 (Malme-3M) | GI50 (NCI-H226)
CCOC(=O)c1ccc(Nc2nc3cc(C(F)(F)F)ccc3nc2C(=O)OCC)cc1 | 38.3 µM (inactive) | > 100 µM (inactive) | > 100 µM (inactive) | > 100 µM (inactive) | 39.6 µM (inactive) | > 100 µM (inactive) | > 100 µM (inactive) | 34.2 µM (inactive) | 22.6 µM (inactive) | 28.3 µM (inactive) | > 100 µM (inactive) | > 100 µM (inactive) | > 100 µM (inactive) | 42 µM (inactive) | 69.3 µM (inactive) | 22.1 µM (inactive) | > 100 µM (inactive) | – | – | –
Cc1c(Cl)nc(Nc2nc3ccccc3[nH]2)nc1Cl | > 100 µM (inactive) | > 100 µM (inactive) | > 100 µM (inactive) | 31.2 µM (inactive) | > 100 µM (inactive) | 36.2 µM (inactive) | 40 µM (inactive) | > 100 µM (inactive) | > 100 µM (inactive) | > 100 µM (inactive) | 17.1 µM (inactive) | 27.2 µM (inactive) | > 100 µM (inactive) | > 100 µM (inactive) | 43.7 µM (inactive) | – | 19.9 µM (inactive) | 29 µM (inactive) | > 100 µM (inactive) | > 100 µM (inactive)
CC(C)(C)OC(=O)NC(Cc1ccc(OCc2ccccc2)cn1)C(=O)N1CCCC1 (stereo not drawn) | 30.1 µM (inactive) | > 100 µM (inactive) | 53.7 µM (inactive) | > 100 µM (inactive) | > 100 µM (inactive) | > 100 µM (inactive) | > 100 µM (inactive) | > 100 µM (inactive) | > 100 µM (inactive) | 19.3 µM (inactive) | 65.5 µM (inactive) | > 100 µM (inactive) | 37.4 µM (inactive) | > 100 µM (inactive) | 27.4 µM (inactive) | > 100 µM (inactive) | > 100 µM (inactive) | – | 30.3 µM (inactive) | –
COC(=O)c1c2c(cc3c1CC1(C3)Cc3cc4c(c(C(=O)OC)c3C1)CCCC4)CCCC2 | > 100 µM (inactive) | 0.381 µM (active) | > 100 µM (inactive) | – | > 100 µM (inactive) | > 100 µM (inactive) | – | > 100 µM (inactive) | – | 53.3 µM (inactive) | > 100 µM (inactive) | > 100 µM (inactive) | > 100 µM (inactive) | > 100 µM (inactive) | > 100 µM (inactive) | > 100 µM (inactive) | – | > 100 µM (inactive) | > 100 µM (inactive) | > 100 µM (inactive)
Cc1ccc(SCC(CF)OCn2cc(F)c(=O)[nH]c2=O)cc1 (stereo not drawn) | > 100 µM (inactive) | > 100 µM (inactive) | > 100 µM (inactive) | > 100 µM (inactive) | > 100 µM (inactive) | > 100 µM (inactive) | > 100 µM (inactive) | > 100 µM (inactive) | > 100 µM (inactive) | > 100 µM (inactive) | – | > 100 µM (inactive) | > 100 µM (inactive) | > 100 µM (inactive) | > 100 µM (inactive) | > 100 µM (inactive) | > 100 µM (inactive) | > 100 µM (inactive) | > 100 µM (inactive) | –
COc1ccc(NC(C)c2ccncc2)cc1 (stereo not drawn) | > 100 µM (inactive) | > 100 µM (inactive) | > 100 µM (inactive) | > 100 µM (inactive) | > 100 µM (inactive) | – | > 100 µM (inactive) | > 100 µM (inactive) | > 100 µM (inactive) | > 100 µM (inactive) | > 100 µM (inactive) | > 100 µM (inactive) | > 10 µM (inactive) | > 100 µM (inactive) | > 100 µM (inactive) | > 100 µM (inactive) | – | > 100 µM (inactive) | > 100 µM (inactive) | > 100 µM (inactive)
C[C@@H]1CCC2[C@@H](C)C(=O)O[C@@H]3C4C[C@@H]1[C@@]23OO[C@@]4(C)O (stereo partly drawn) | > 100 µM (inactive) | 27.9 µM (inactive) | 72.6 µM (inactive) | > 100 µM (inactive) | > 100 µM (inactive) | 19.7 µM (inactive) | > 100 µM (inactive) | > 100 µM (inactive) | > 100 µM (inactive) | 2.81 µM (inactive) | > 100 µM (inactive) | > 100 µM (inactive) | > 100 µM (inactive) | 58.7 µM (inactive) | 87.3 µM (inactive) | > 100 µM (inactive) | > 100 µM (inactive) | > 100 µM (inactive) | > 100 µM (inactive) | –
O=C(NC(=S)Nc1ccc([N+](=O)[O-])cc1)c1ccc2c(c1)Sc1ccccc1O2 | 89.1 µM (inactive) | > 100 µM (inactive) | > 100 µM (inactive) | > 100 µM (inactive) | > 100 µM (inactive) | 98.2 µM (inactive) | > 100 µM (inactive) | > 100 µM (inactive) | 53.3 µM (inactive) | > 100 µM (inactive) | > 100 µM (inactive) | 32.8 µM (inactive) | > 100 µM (inactive) | 49.9 µM (inactive) | 24.6 µM (inactive) | – | > 100 µM (inactive) | – | 65.8 µM (inactive) | > 100 µM (inactive)
